Experimental data published in patent US20260274922A1, “SYNTHETIC ESTROGEN RECEPTOR (ER)-DERIVED PEPTIDE” (THE TEXAS A&M UNIVERSITY SYSTEM, priority 2023, published 2026).
Where no end group is shown, it is not given here. The star is where a group is joined. FITC = O=C1OC2(c3ccc(O)cc3Oc3cc(O)ccc32)c2ccc(NC(=S)*)cc21

How the values were obtained:
db/db mice = type: in vivo, mouse
Experimental: Obese mouse models and AF1 peptide treatment. For the high-fat diet (HFD)-induced obese mouse model, the 6-8-week-old male mice were fed with HFD (HFD; 60% kcal from fat, D12492; Research diet, New Brunswick, NJ) for 11 weeks. Then mice received 5 mg/kg body weight control or AF1 peptide through retro orbital injection (twice per week; 5 weeks). For genetic obesity mouse model, the 8-week-old db/db mice were administered with 5 mg/kg body weight control or AF1 peptide through retro orbital injection (twice per week; 5 weeks). Glucose tolerance and insulin tolerance tests were performed in the fourth and fifth week after treatment, respectively. Body composition was measured using EchoMRI™ one day before sacrificing the mice.
(§1) Glucose and insulin tolerance tests. For glucose tolerance tests, mice were fasted for 16 h and intraperitoneally (i.p.) injected with dextrose (1 g/kg body weight for mice fed with regular diet; 0.5 g/kg body weight for db/db mice or mice fed with HFD). For insulin tolerance tests, mice were fasted for 6 h and i.p. injected with insulin solution (1 U/kg body weight for male mice; 0.75 U/kg body weight for female mice). Blood glucose levels were measured using glucometer at indicated time points.
Hematoxylin and eosin staining and Oil Red O staining. Livers were embedded into paraffin after being fixed by PFA, and then cut into 5 μm sections. After deparaffinization and hydration, liver sections were stained with hematoxylin for 5 min. After differentiation by 1% acid alcohol, liver sections were stained with 1% eosin for 3 min. Finally, liver sections were dehydrated and mounted with mounting media. For Oil Red O staining, liver frozen sections were prepared and fixed in 10% neutral buffered formalin for 10 min after air dry for 1 h. Liver sections were stained in Oil Red O working solution for 15 min after a quick dip in 60% isopropanol. Liver sections were then stained with hematoxylin for 3 min and covered with aqueous mounting gel. Liver sections were observed using slide scanner (Leica).
(§2) Co-immunoprecipitation and Western blotting analysis. […] Protein bands were detected using a ChemiDoc image system.
Serum lipid profile analysis. Serum triglyceride, AST, ALT, cholesterol, LDL, HDL, NEFA, and ALP were measured using DxC 700 AU Chemistry Analyzer (Beckman Coulter).
Serum insulin and liver triglyceride analysis. Serum insulin and triglyceride levels were measured by using mouse insulin ELISA kit (Mercodia) and triglyceride assay kit (Abcam), respectively. […]

[1] = system: primary mouse hepatocytes; assay: Hepatic glucose production (HGP) in primary hepatocytes upon glucagon treatment; type: cell-based; settings: WT primary hepatocytes
Experimental: Hepatic glucose production. The primary mouse hepatocytes were isolated from 8-12-week-old male mice. Cells were resuspended in DMEM medium (2% FBS and 1% penicillin-streptomycin) for 3 h and cultured in HGP buffer (118 mM NaCl, 2.5 mM CaCl2, 4.8 mM KCl, 25 mM NaHCO3, 1.1 mM KH2PO4, 1.2 mM MgSO4, […], 0.6% BSA, 10 mM HEPES, 10 mM sodium DL-lactate, and 5 mM pyruvate, pH 7.4). Then cells were pretreated with 50 nM glucagon for 30 min, followed by 10 nM insulin treatment for 3 h, and glucose level in the medium was measured using Amplex Red Glucose Assay. The results were normalized by cell protein abundance.

DKO male mice = assay: AF1 peptide treatment of liver-specific IRS1 and IRS2 knockout (DKO) mice; type: in vivo, mouse
Experimental: Animal studies. All animal experiments were performed following procedures approved by the Texas A&M University Institutional Animal Care and Use Committee. Mice are housed at 22-24° C. and maintained on a 12 h light/12 h dark cycle with a standard chow diet (58% calories from carbohydrate, 18% from fat, and 24% from protein, 3.1 kcal/g, with a reduced phytoestrogen content; Teklad Diet) ad libitum. Liver-specific ERα (ERα^LivKO) or ERβ (ERβ^LivKO) knockout mice were generated by crossing ERα or ERβ flox mice (gift from Dr. Yong Xu, Baylor College of Medicine) with Albumin-Cre mice purchased from The Jackson Laboratory (Strain #003574), respectively. Liver IRS1 and IRS2 double knockout (DKO) mice were generated by breeding IRS1 and IRS2 flox (IRS1^L/L::IRS2^L/L) mice with Albumin-Cre mice. Liver IRS1, IRS2, and ERα triple knockout (TKO) mice were generated by crossing DKO mice with ERα^LivKO mice. All mice were on C57B/6J background. Db/db mice were purchased from The Jackson Laboratory (Strain #000697). Female mice at age of 2-month-old underwent a bilateral ovariectomy (OVX) surgery; these mice were used to perform experiments 4 weeks after OVX surgery. All the mice experiments were performed with age- and gender-matched mice with their health status examined daily by the investigators and technicians from Texas A&M University LARR Animal Facility. Littermate controls were used if possible.
as §1, §2

12-month-old female mice = assay: AF1 peptide treatment of aging female mice (12-month-old); type: in vivo, mouse; settings: 5 mg/kg i.v. twice per week, 5 weeks
Experimental: Postmenopause in old women is highly associated with increased risk of diabetes.
as §1

[2] = db/db mice, 5 mg/kg twice per week, 5 weeks
[3] = db/db mice, 5 mg/kg twice per week, 5 weeks, vs CNTR

Sequence: YGRKKRRQRRRTKASGMALLHEPLNRPQLKIPLERDSSKPAVYNY ({FITC}-YGRKKRRQRRRTKASGMALLHEPLNRPQLKIPLERDSSKPAVYNY) [AF1 peptide]
- liver triglycerides (db/db mice; db/db mice): decreasing trend
- serum HDL (db/db mice; db/db mice): significantly reduced
- serum LDL (db/db mice; db/db mice): significantly reduced
- serum NEFA (db/db mice; db/db mice): significantly reduced
- serum cholesterol (db/db mice; db/db mice): significantly reduced
- serum insulin (db/db mice; db/db mice): limited effect
- serum triglycerides (db/db mice; db/db mice): decreasing trend
- overnight fasting blood glucose (db/db mice; [2]): 103.8 ± 3.6 mg/dL
- random feeding blood glucose (db/db mice; [2]): 360.7 ± 25.1 mg/dL
- decrease in overnight fasting blood glucose (db/db mice; [3]): 35%
- reduction in random feeding blood glucose (db/db mice; [3]): 22%
- liver steatosis (steatosis structure and liver fat amount) (db/db mice; db/db mice, H&E and Oil Red O staining): significantly decreased
- blood glucose upon glucose or insulin challenge (db/db mice; db/db mice, glucose and insulin tolerance tests): significantly decreased
- decrease in pIRS1-S302 (db/db mice; db/db mice, liver): 61%
- increase in IRS1 (db/db mice; db/db mice, liver): 114%
- increase in pAKT-S473 (db/db mice; db/db mice, liver): 98%
- increase in pAKT-T308 (db/db mice; db/db mice, liver): 101%
- pAKT-S473 and pAKT-T308 (db/db mice; db/db mice, skeletal muscle and epididymal fat tissues): significantly increased
- serum ALP (db/db mice; mouse, in vivo): limited effect
- serum ALT (db/db mice; mouse, in vivo): limited effect
- serum AST (db/db mice; mouse, in vivo): significantly reduced
- glucagon-induced hepatic glucose production (HGP) [1]: did not impair
- enhancement of insulin-mediated suppression of HGP ([1]; under glucagon challenge): 22%
- glucose homeostasis (DKO male mice; glucose tolerance test): significantly improved
- insulin sensitivity (DKO male mice; insulin tolerance test): significantly improved
- insulin-induced AKT phosphorylation in the liver (DKO male mice; liver): could not be rescued
- insulin-stimulated AKT phosphorylation in skeletal muscle and eWAT (DKO male mice; skeletal muscle and epididymal white adipose tissue): partially improved
- glucose tolerance (12-month-old female mice): nonsignificant increase
- insulin sensitivity (12-month-old female mice): modest improvement
